This note sets out measurements from EP1057484A1, “CELL DEATH INHIBITORS” (priority 1998, dated 1999).

One test deals with erythrocytes. As to the kind of experiment: Test Example 13: hydrogen peroxide-induced death of erythrocytes. Type of test: cell-based. To be noted: Homo sapiens, Erythrocyte, read-out: ratios of dead erythrocytes (dark ghost cells); for cytotoxicity at 20 µM: 20 µM added prior to hydrogen peroxide (300 µM). The method, then: After human blood (2 mL) was centrifuged at 1000 rpm for 5 min, the resulting cell pellets containing erythrocytes were washed three times with a DMEM medium and the cells were resuspended in the same medium (15 mL) (about 5 × 10^8 cells/mL). Ten µL of this suspension was added with 10% FCS/DMEM (10 mL), and the cells were plated in 48 well plates (500 µL/well). When hydrogen peroxide (300 µM) was added to the erythrocyte culture solution and the cells were cultured for 24 hours, all erythrocytes were dead on observations under a light microscopy (all erythrocytes were subjected to shape changes from a bright, round and concave shape into a dark hemolytic ghost through multiple shape changes). On the other hand, Test Compound 14 (30 µM), Test Compound 18 (10 µM), Test Compound 19 (20 µM) or Test Compound 20 (20 µM) was added prior to the hydrogen peroxide addition.

Test [1] concerns Porcine Ovarian Granulosa Cells. Description: Test Example 7: inhibition of SNP-induced apoptosis of undifferentiated POGC. The test is classed as cell-based. To be noted: Sus scrofa; for complete inhibition of apoptosis; SNP 0.5 mM; cells observed after 48 hours; read-out: Minimum effective concentration.
In test [2] the test system is cerebellar granule cells. Description: Test Example 11: SNP-induced death of cerebellar granule cells. The test is classed as cell-based, rats. To be noted: Rattus norvegicus; 10 µM added prior to SNP (1.5 µM); observation after 12 hours; read-out: cells alive.
Test [3] concerns cerebellar granule cells. Description: Test Example 10: hydrogen peroxide-induced death of cerebellar granule cells. To be noted: Rattus norvegicus, read-out: cells alive. The test is classed as cell-based, rats. The method, then:
(§1) According to a known method (A Dissection and Tissue Culture Manual of the Nervous System, p. 211, 1989, Alan R, Liss, Inc.), cerebellar granule cells were isolated from the cerebellum of 7 days old rats and cultured. Namely, after conducting isolation procedures described in the above literature, the resulting cells were resuspended in DMEM containing 10% fetal bovine serum, 25 mM KCl and 2 mM glutamine, and seeded in poly-lysine coated plates. After the cells were cultured in a CO2 incubator for 48 hours according to a conventional method, cytosine-1-β-D(+)-arabinofuranoside (Ara-C) (10 µM) was added thereto, and the cell was continued to culture. The following experiments were conducted with the cells of 7 to 14 days old from the start day of the culture, the cells having completed neurite extension sufficiently. […] Furthermore, experiments were conducted by increasing a concentration of hydrogen peroxide to 300 µM. In the cases that Test Compound 18 (10 µM), Test Compound 19 (10 µM), or Test Compound 20 (10 µM) were added, about 90%, 90%, and 70% of the cells were alive, respectively, on observations after 16 hours.

In test [4] the test system is undifferentiated POGC. As to the kind of experiment: Test Example 6: hydrogen peroxide-induced cell death of undifferentiated POGC. The test is classed as cell-based, porcine. Conditions: Sus scrofa; 3 µM added prior to hydrogen peroxide (100 µm); observation after 24 hours; read-out: cells alive.
The test system of test [5] is Porcine ovarian granulosa cells (POGC). Description: Test Example 3: PGF2α-induced cell death of terminally differentiated POGC. Type of test: cell-based. Conditions: Sus scrofa; 3 µM added prior to PGF2α (50 µg/mL); observation after 16 hour; read-out: survival of the cells. From the text: (§2) The ovarian granulosa cells are cells surrounding an ovum, and proliferate and differentiate by the action of follicle stimulating hormone (FSH) and luteinizing hormone (LH) in response to sexual cycles, during which they acquire a progesterone-producing ability. Unovulatory follicles finally undergo apoptosis and disappear. The differentiation process can be mimicked following to a known method (Endocrinology, Vol. 136, p. 3470, 1995) as shown in the following in vitro experiment. Furthermore, when they are continuously cultured with maintaining final differentiation ability, they are observed to undergo apoptosis as described below. Namely, porcine ovaries were rinsed with PBS buffer, and porcine ovarian granulosa cells (POGC) were collected by aspiration from antral follicles with a syringe. Cell fraction was recovered as a precipitate by centrifugation of the suspension. The operation of suspending the cell fraction into PBS buffer and subjecting the resulting suspension to centrifugation was repeated three times to wash the cells. […] Upon continued culture, these completely differentiated cells undergo cell death synchronously after about 5 days, the cell death being monitored by a trypan blue exclusion test and a MTT (3-(4,5-dimethylthiazol-2-yl)-2,5-diphenyltetrazolium bromide) test. […]

Test [6] concerns POGC. As to the kind of experiment: Test Example 5: staurosporine-induced cell death of completely differentiated POGC. The test is classed as cell-based, porcine. Conditions: Sus scrofa; 3 µM added prior to staurosporine (3 nM); observation after 68 hours; read-out: cells alive.
Source text: as §2

The subject of test [7] is POGC. Description: Test Example 4: cell death of POGC in long term serum-free, hormone-free culture. Type of test: cell-based, porcine. To be noted: Sus scrofa, 168 h, observation at 7 days after the death of cells treated with no test compound, read-out: survival of the cells.
Source text: as §2

Test [8] relates to Porcine ovarian granulosa cells (POGC). Description: Test Example 2: cell death of terminally differentiated (FSH/LH) POGC on continued culture. The test is classed as cell-based. To be noted: Sus scrofa, 168 h; 3 µM added 4 days after final medium refreshment; observation 7 days after addition; read-out: cells alive. From the text:
The ovarian granulosa cells are cells surrounding an ovum, and proliferate and differentiate by the action of follicle stimulating hormone (FSH) and luteinizing hormone (LH) in response to sexual cycles, during which they acquire a progesterone-producing ability. Unovulatory follicles finally undergo apoptosis and disappear. The differentiation process can be mimicked following to a known method (Endocrinology, Vol. 136, p. 3470, 1995) as shown in the following in vitro experiment. Furthermore, when they are continuously cultured with maintaining final differentiation ability, they are observed to undergo apoptosis as described below. Namely, porcine ovaries were rinsed with PBS buffer, and porcine ovarian granulosa cells (POGC) were collected by aspiration from antral follicles with a syringe. Cell fraction was recovered as a precipitate by centrifugation of the suspension. The operation of suspending the cell fraction into PBS buffer and subjecting the resulting suspension to centrifugation was repeated three times to wash the cells. […] Upon continued culture, these completely differentiated cells undergo cell death synchronously after about 5 days, the cell death being monitored by a trypan blue exclusion test and a MTT (3-(4,5-dimethylthiazol-2-yl)-2,5-diphenyltetrazolium bromide) test.

Test [9] concerns monolayer cells derived from the mouse kidneys. Description: Test Example 15: SNP-induced apoptosis of monolayer cells derived from kidneys. The test is classed as cell-based, mice. To be noted: observation after 48 hours, read-out: cells alive. The protocol:
Kidneys isolated from mice were dissected into minute pieces in a serum-free DMEM, which were dispersed with trypsin/EDTA treatment. After leaving it for a while, the supernatant was discarded, and the pellet was transferred to a culture plate and cultured in DMEM containing 10% fetal bovine serum in a CO2 incubator according to a conventional manner. After tissues were adhered onto a culture plate and subsequently cell colonies got formed, the tissues were removed and the colonies were subcultured in the same medium. The resulting monolayer cells derived from the mouse kidneys were morphologically different from fibroblasts. […] Then, Test Compound 14 (5 µM) or Test Compound 18 (2.5 µM) was added prior to the SNP addition and the cells were observed.

Test [10] has as its system Primary cultured fibroblasts. As to the kind of experiment: Test Example 14: SNP-induced apoptosis of primary cultured fibroblasts. The test is classed as cell-based, mice. To be noted: Mus musculus, Fibroblast, observation after 48 hours, read-out: cells alive. The protocol: Primary cultured fibroblasts were prepared from mice according to a known method (Kinou Saibou no Bunri to Baiyou (Isolation and Culture of Functional Cells), Maruzen, 1987, p. 59). Namely, after removing skin hairs from mice with shaving foam followed by disinfection with a chlorhexidine gluconate solution, tiny skin fragments were isolated. […] After migration of fibroblasts became obvious, the slide glasses and the residual skin fragments were removed, and the culture was continued. […] In the cases that Test Compound 14 (5 µM) or Test Compound 18 (2.5 µM) was added to the present culture system prior to the SNP addition, apoptosis in both cultures was inhibited and more than 95% of cells were alive on an observation after 48 hours.

In test [11] the test system is undifferentiated POGC. Description: Test Example 8: bilirubin-induced cell death of undifferentiated POGC. Type of test: cell-based, porcine. Conditions: Sus scrofa, 96 h; 10 µM added prior to bilirubin (30 µg/mL); observation after 4 days; read-out: survival of the cells.
For a further test, the system named is 4B2 cells. As to the kind of experiment: Test Example 9: SNP-induced apoptosis of 4B2 granulosa cell line. The test is classed as cell-based. Conditions: Mus musculus; 10 µM added prior to SNP (0.5 mM); observation after 24 hours; read-out: cells alive. The protocol: Mouse granulosa cells were transfected with SV40 T antigen and cDNA of steroidogenic factor-1 (SF-1/Ad4BP) to establish a cell line, named 4B2. The cell secretes progesterone in response to protein kinase-A. The 4B2 cells were cultured in 48-well culture plates until subconfluency in DMEM containing 10% fetal bovine serum in a CO2 incubator according to a conventional manner. After the medium was switched to DMEM containing 2% fetal bovine serum, SNP (0.5 mM) was added thereto. […] Then, prior to the addition of SNP, Test Compound 13, 14, 17, 20, 24 or 25 (10 µM each) was added to the present medium and observations on cells were made after 24 hours.

Test [12] has as its system cerebellar granule cells. As to the kind of experiment: Test Example 12: bilirubin-induced death of cerebellar granule cells. Type of test: cell-based, rats. Conditions: Rattus norvegicus; 10 µM added prior to bilirubin (100 µg/ml); observation after 18 hours; read-out: cells alive. The protocol: as §1
Neonatal jaundice is known to induce severe brain damages by way of abnormally high concentration of bilirubin in the body. […]

Where [13] appears, read: 10 µM added prior to hydrogen peroxide (10 µM), observation after 12 hours.
[14] abbreviates: 10 µM, hydrogen peroxide 300 µM, observation after 16 hours.
[15] abbreviates: 2.5 µM added prior to SNP (0.5 mM).
Setting [16] is: 5 µM added prior to SNP (0.5 mM).

Bounds are passed on as bounds.

With `CN1C(=O)C(c2c[nH]c3ccccc23)=C(c2cn(CCCN)c3ccccc23)C1=O` [Compound 19], the cytotoxicity at 20 µM with erythrocytes (observation after 24 hours) was found to be 10%. The minimal effective concentration in test [1] was found to be 0.7 µM. Further, the viability at 10 µM in the test with cerebellar granule cells [2] was above 95%; with cerebellar granule cells [3] (setting [13]) it was above 95%; with cerebellar granule cells [3] (setting [14]), around 90%.
In the case of `CN(C)CCCn1cc(C2=C(c3c[nH]c4ccccc34)C(=O)NC2=O)c2ccccc21` [Compound 18], the viability at 3 µM (in the test on undifferentiated POGC [4]; in test [5]; in the test with POGC [6]; in the test on POGC [7]; in test [8]) was above 95% each time. For the same molecule, the cytotoxicity at 10 µM with erythrocytes (24 h) was determined as 20%. Besides, the viability at 10 µM in the test with cerebellar granule cells [3] (setting [14]) is around 90%. Also, the viability at 2.5 µM in [9] (setting [15]) and in test [10] (setting [15]) was above 95% throughout.
`Cc1cccc2c(C3=C(c4c[nH]c5c(C)cccc45)C(=O)N(C)C3=O)c[nH]c12` [Compound 25]: the viability at 10 µM in the test with undifferentiated POGC [11] was 95%; in the test on 4B2 cells, above 95%; in the test on cerebellar granule cells [2] it was above 95%; with cerebellar granule cells [3] (setting [13]), above 95%. For the same molecule, the minimal effective concentration in test [1] worked out at 0.3 µM.
Regarding `CN1C(=O)C(c2c[nH]c3ccccc23)=C(c2c[nH]c3ccccc23)C1=O`, the cytotoxicity at 30 µM with erythrocytes (30 µM added prior to hydrogen peroxide (300 µM), observation after 24 hours) was found to be 20%. Moreover, the figures for the viability at 10 µM in the test with undifferentiated POGC [11], in the test with 4B2 cells and with cerebellar granule cells [2] were 50%, above 95% and above 95%, respectively. In addition, the viability at 5 µM in test [9] (setting [16]) and in [10] (setting [16]) was above 95% throughout.
For `CC(=O)NCCCn1cc(C2=C(c3c[nH]c4ccccc34)C(=O)N(C)C2=O)c2ccccc21` [Compound 20], the viability at 10 µM in the test on cerebellar granule cells [12] was around 80%; with 4B2 cells, above 95%; in the test on cerebellar granule cells [2], above 95%; in the test with cerebellar granule cells [3] (setting [14]) it was around 70%. In addition, in the test on erythrocytes (observation after 24 hours), the cytotoxicity at 20 µM was 10%. Also, the minimal effective concentration in test [1] turned out to be 7 µM.
